Assays:
HeLa cells [1] = assay: Scratch wound healing (anti-migration) assay; type: cell-based, human; conditions: 25 μmol/L, 24 h
Protocol: Once the monolayer was formed, a small scratch was made in the plate using a 10 μL pipette tip (0 h, day 1). The monolayer was once washed with PBS to remove debris or the detached cells from the monolayer. […] Images were taken using an inverted microscope ([19]). The experiments were performed in triplicate.
The relative scratch healing rate was calculated as follows according to reference ([20]),
Scratch healing rate = (scratch width at 0 h – the remaining scratch width at 24 h)/scratch width in 0 h×100%

[2] = system: LO2 (human normal liver cell line); assay: CCK-8 cytotoxicity assay, normal LO2 cells; type: cell-based; conditions: CCK-8
Protocol: (§1) HeLa (human cervical cancer cell line), HepG2 (human liver cancer cell line), SP2/0 (mouse myeloma cell line), and LO2 (human normal liver cell line) were cultured in DMEM medium. Each medium was supplemented with 10% fetal bovine serum, 1% L-glutamine and 1% penicillin/streptomycin solution. The cell lines were kept in the incubator at 37 ℃ in a humidified atmosphere (90% RH) containing 5% CO2. […] The cell lines SP2/0 and MCF-7 were obtained from Laboratory Center of Shaanxi Province People’s Hospital.
(§2) 2×10^3 cells per well were planted into 96-well plates in 100 μL growth medium and incubated for 24 h. […] The mixture was incubated at 37 ℃ under a humidified 5% CO2 atmosphere. After incubation, 10 μL CCK-8 solution was added to each well and the cells were further incubated for 2 h at 37 ℃ according to the CCK-8 Technical Manual. Then, the OD value for each well was read at wavelength 450 nm to determine the cell viability on a microplate reader (Synergy HT, USA). […] The independent experiment was repeated at least three times. The percentage of growth inhibition was calculated as follows according to reference ([18]),
(§3) % of growth inhibition = [1 - absorbance of treated cells/absorbance of untreated cells] × 100%

[3] = CCK-8 cytotoxicity assay, normal LO2 cells; type: cell-based, human; conditions: human, LO2 normal liver cells; CCK-8, 48 h, normal liver cells; read-out: Cytotoxicity (IC50) L02
Protocol: as §1, §2, §3

HeLa cells [4] = assay: Flow cytometric analysis of cell apoptosis (annexin V-FITC/PI); type: cell-based, human; conditions: 24 h, control 0.02%
Protocol: The cell apoptosis analysis was evaluated by using the annexin V-FITC apoptosis detection kit (Beyotime, China). Briefly, the HeLa cells (1×10^6 cells/well) were seeded into 6-well culture plates and incubated for 24 h. Then the cells were incubated for 24 h with the compound 4a (12.5, 25 and 50 μmol/L). The cells were then rinsed, resuspended in 60 μL binding buffer and incubated for 10 min with 5 μL annexin V-FITC at room temperature, followed by an addition of 120 μL binding buffer and 10 μL PI. The solutions were gently mixed and analyzed with the FACScan flow cytometry. The cells that were not treated were used as the control ([23]).

[5] = system: HepG2 (human liver cancer cell line); assay: CCK-8 anti-proliferative assay, HepG2; type: cell-based
Protocol: as §1, §2, §3

[6] = system: MCF-7 (human breast cancer cell line); assay: CCK-8 anti-proliferative assay, MCF-7; type: cell-based
Protocol: as §1, §2, §3

[7] = system: HeLa (human cervical cancer cell line); assay: CCK-8 anti-proliferative assay, HeLa; type: cell-based
Protocol: as §1, §2, §3

[8] = system: Bax, Bcl-2, Caspase-3, Cleaved caspase-3, PI3K in HeLa cells; assay: Western blot assay; type: cell-based, human; conditions: 24 h; for Ratio of Bax/Bcl-2: HeLa, control 0.072
Protocol: HeLa cells were seeded into 6-well plates at 10^6 cells per well with different concentrations of compound 4a (12.5, 25 and 50 μmol/L) and incubated at 37 ℃ for 24 h in the presence of 10% FBS. The controls were treated with vehicle (0.5% DMSO). The cells were lysed into ice-cold cell lysis buffer for 30 min and centrifuged at 13000 g for 15 min at 4 ℃. The protein concentrations of the supernatant were determined by a BCA protein Assay Kit. Equal amounts of protein lysates were separated on 10% SDS-PAGE (sodium dodecyl sulfate-polyacrylamide gel electrophoresis) and transferred onto PVDF membranes. The membranes were blocked with 5% non-fat milk in TBST (0.1% Tween 20 in TBS) buffer for 2 h, incubated with primary antibodies at 1:1000 dilutions at 4 ℃, and washed by TBST four times. Then, the membrane was immunobloted with Bax, Bcl-2, Caspase-3, Cleaved caspase-3, PI3K, and β-actin primary antibodies at 1:1000 dilutions at 4 °C for 12 h. After secondary incubation in horseradish peroxidase-conjugated secondary antibodies at 1:3000 at room temperature for 2 h, protein bands were visualized on X-ray film (Kodak, Japan) using ECL (Beyotime, China). The immunoblots were detected by densitometric analysis. Equal loading of protein in each lane was confirmed by probing with β-actin antibody ([24]).

HeLa cells [9] = assay: Cell morphological assessment by Hoechst 33258 staining; type: cell-based, human; conditions: HeLa, 12.5, 25 and 50 μmol/L, 24 h
Protocol: The cell morphological assessment was carried out as described by Wang S ([21]). Morphological changes, such as chromosomal condensation and fragmentation in the nuclei of HeLa, were observed by Hoechst 33258 staining. In brief, HeLa cells were seeded at a concentration of 1×10^6 cells/well in 6-well plate and treated with compound 4a (12.5, 25 and 50 μmol/L) for 24 h. Subsequently, the cells were harvested and washed once with PBS and then fixed with 4% paraformaldehyde in PBS for 10 min. After staining with 10 mg/L Hoechst 33258 for 5 min, the cells were visualized under a fluorescent microscope (Nikon, Japan).

[10] = system: SP2/0 (mouse myeloma cell line); assay: CCK-8 anti-proliferative assay, SP2/0; type: cell-based
Protocol: as §1, §2, §3

HeLa cells [11] = assay: Flow cytometric analysis of the cell cycle (PI); type: cell-based, human; conditions: 24 h, control 3.66%
Protocol: Cell cycle assay was performed using the cell cycle and apoptosis analysis kit (Beyotime, China) and following the manufacturer’s instructions. The HeLa cells were treated with the indicated concentrations of compound 4a (12.5, 25 and 50 μmol/L) for 24 h. Next, the cells were harvested and washed twice with PBS. The cells were fixed with cold 70% ethanol for 12 h at 4 ℃ and were harvested and centrifuged at 1000 g for 5 min. Then, the cell density was adjusted to 1×10^6 cells/mL with PBS. Finally, the cells were stained with a propidium iodide (PI) solution (50 μg/mL). The number of cells in each phase of the cell cycle was analyzed by flow cytometry (FACSCalibur; BD Bioscience, USA).

melting point: 133 to 134 °C
SMILES: CCNc1nc2ccc(OC(F)(F)F)cc2s1 [Compound 4a, 2-(N-ethylamine)-6-trifluoromethoxy-benzothiazole]
Relative scratch healing rate (HeLa cells [1]): less than 20%
Effect on HeLa cell migration (HeLa cells [1]; versus control group): significantly slower
Concentration up to which nontoxic to LO2 cells [2]: up to 65 μmol/L
IC50 at 48 h [3]: 65 ± 4.38 µM
Early apoptotic rate (LR quadrant) (HeLa cells [4]; 12.5 μmol/L): 4.76%
Early apoptotic rate (LR quadrant) (HeLa cells [4]; 25 μmol/L): 9.63%
Early apoptotic rate (LR quadrant) (HeLa cells [4]; 50 μmol/L): 19.81%
IC50 ([5]; Homo sapiens, HepG2, CCK-8, 48 h, read-out: Cytotoxicity (IC50) HepG2): 33.7 ± 1.04 µM
Selectivity index (SI) HepG2 ([5]; IC50 LO2 / IC50 HepG2): 1.93
IC50 ([6]; Homo sapiens, MCF7, CCK-8, 48 h, read-out: Cytotoxicity (IC50) MCF-7): 7.72 ± 0.53 µM
Selectivity index (SI) MCF-7 ([6]; IC50 LO2 / IC50 MCF-7): 8.41
IC50 ([7]; Homo sapiens, HeLa, CCK-8, 48 h, read-out: Cytotoxicity (IC50) HeLa): 7.76 ± 0.45 µM
Selectivity index (SI) HeLa ([7]; IC50 LO2 / IC50 HeLa): 8.37
Ratio of Bax/Bcl-2 ([8]; 12.5μM): 0.087
Ratio of Bax/Bcl-2 ([8]; 25μM): 1.092
Ratio of Bax/Bcl-2 ([8]; 50μM): 1.929
Expression level of Caspase-3 ([8]; HeLa, 12.5, 25 and 50 μmol/L): not remarkably concentration-dependent change
Expression level of PI3K ([8]; HeLa, 12.5, 25 and 50 μmol/L): not remarkably concentration-dependent change
Expression of Bcl-2 ([8]; HeLa, 12.5, 25 and 50 μmol/L): reduced
Level of Bax ([8]; HeLa, 12.5, 25 and 50 μmol/L): increased
Level of Cleaved caspase-3 ([8]; HeLa, 12.5, 25 and 50 μmol/L): increased
Nuclear morphology (Hoechst 33258) (HeLa cells [9]): nuclear condensation and fragmentation
Selectivity index (SI) SP2/0 ([10]; IC50 LO2 / IC50 SP2/0): 1.27
IC50 ([10]; Mus musculus, CCK-8, 48 h, read-out: Cytotoxicity (IC50) SP2/0): 51.1 ± 2.73 µM
Cells in the G2/M phase (HeLa cells [11]; 12.5 μmol/L): 3.85%
Cells in the G2/M phase (HeLa cells [11]; 25 μmol/L): 6.63%
Cells in the G2/M phase (HeLa cells [11]; 50 μmol/L): 8.00%

Source: publication PMC7757987, “Antitumor Activity and Mechanism Study of Riluzole and Its Derivatives” (Iranian Journal of Pharmaceutical Research : IJPR, 2020)
